From article PMC10046946, “Novel Phthalic-Based Anticancer Tyrosine Kinase Inhibitors: Design, Synthesis and Biological Activity” (Current Issues in Molecular Biology, 2023)
Entries after “also recorded” stand apart in the source; their conditions may differ.

Key:
[1] = test system: A549 (lung carcinoma); assay: MTT cell proliferation assay, A549; type: cell-based; settings: Homo sapiens, A549, 72 h of exposition, read-out: Anti-proliferative activity IC50, A549
Procedure, shortened: (§1)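 IC50 values come from an MTT proliferation assay; sorafenib, nilotinib and lapatinib served as reference standards.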

[2] = test system: OKP-GS (renal cell carcinoma); assay: MTT cell proliferation assay, OKP-GS; type: cell-based; settings: 72 h of exposition, read-out: Anti-proliferative activity IC50, OKP-GS
Procedure, shortened: as §1

[3] = test system: cancer cell lines (K562, HL-60, MCF-7, HepG2, A549, OKP-GS); assay: MTT cell proliferation assay, statements over the whole cell line panel; type: cell-based; settings: statement over the cell line panel, studied concentration range up to 50 µM
Experimental: Tests to determine the effects of the synthesized compounds on cell viability and the half-maximal inhibitory concentration (IC50) were performed using the MTT assay, as described in our prior work.
The target compounds 5, 6, 8–12, 14, 15, 17–22 and 24–26 were tested for antiproliferative activity against six cancer cell lines: K562 (chronic myelogenous leukemia), HL-60 (promyelocytic leukemia), MCF-7 (breast adenocarcinoma), HepG2 (human liver cancer), A549 (lung carcinoma) and OKP-GS (renal cell carcinoma). The RPMI 1788 cells (B lymphocyte, human) were used as a control to evaluate the system toxicity of the studied compounds to normal cells. Sorafenib, nilotinib and lapatinib were utilized as reference standards for comparison.

[4] = test system: MCF-7 (breast adenocarcinoma); assay: MTT cell proliferation assay, MCF-7; type: cell-based; settings: Homo sapiens, MCF7, MCF-7, 72 h of exposition, read-out: Anti-proliferative activity IC50, MCF-7
Procedure, shortened: as §1

[5] = test system: RPMI 1788 cells (B lymphocyte, human); assay: MTT cell proliferation assay, normal RPMI 1788 cells; type: cell-based; settings: normal human lymphoblastoid cells RPMI 1788, 72 h of exposition, read-out: Anti-proliferative activity IC50, RPMI 1788
Procedure, shortened: as §1

[6] = test system: HL-60 (promyelocytic leukemia); assay: MTT cell proliferation assay, HL-60; type: cell-based; settings: Homo sapiens, HL-60, 72 h of exposition, read-out: Anti-proliferative activity IC50, HL-60
Procedure, shortened: as §1

[7] = test system: HepG2 (human liver cancer); assay: MTT cell proliferation assay, HepG2; type: cell-based; settings: Homo sapiens, HepG2, 72 h, HepG2, 72 h of exposition, read-out: Anti-proliferative activity IC50, HepG2
Procedure, shortened: as §1

[8] = test system: K562 (chronic myelogenous leukemia); assay: MTT cell proliferation assay, K562; type: cell-based; settings: Homo sapiens, K562, 72 h of exposition, read-out: Anti-proliferative activity IC50, K562
Procedure, shortened: as §1

[9] = target: T1, IGF1R (insulin-like growth factor 1 receptor) (Homo sapiens, UniProt P08069); assay: ADP-Glo kinase assay, IGF1R; type: biochemical
T1 construct: purchased Promega
T1 sequence (P08069 31-1367): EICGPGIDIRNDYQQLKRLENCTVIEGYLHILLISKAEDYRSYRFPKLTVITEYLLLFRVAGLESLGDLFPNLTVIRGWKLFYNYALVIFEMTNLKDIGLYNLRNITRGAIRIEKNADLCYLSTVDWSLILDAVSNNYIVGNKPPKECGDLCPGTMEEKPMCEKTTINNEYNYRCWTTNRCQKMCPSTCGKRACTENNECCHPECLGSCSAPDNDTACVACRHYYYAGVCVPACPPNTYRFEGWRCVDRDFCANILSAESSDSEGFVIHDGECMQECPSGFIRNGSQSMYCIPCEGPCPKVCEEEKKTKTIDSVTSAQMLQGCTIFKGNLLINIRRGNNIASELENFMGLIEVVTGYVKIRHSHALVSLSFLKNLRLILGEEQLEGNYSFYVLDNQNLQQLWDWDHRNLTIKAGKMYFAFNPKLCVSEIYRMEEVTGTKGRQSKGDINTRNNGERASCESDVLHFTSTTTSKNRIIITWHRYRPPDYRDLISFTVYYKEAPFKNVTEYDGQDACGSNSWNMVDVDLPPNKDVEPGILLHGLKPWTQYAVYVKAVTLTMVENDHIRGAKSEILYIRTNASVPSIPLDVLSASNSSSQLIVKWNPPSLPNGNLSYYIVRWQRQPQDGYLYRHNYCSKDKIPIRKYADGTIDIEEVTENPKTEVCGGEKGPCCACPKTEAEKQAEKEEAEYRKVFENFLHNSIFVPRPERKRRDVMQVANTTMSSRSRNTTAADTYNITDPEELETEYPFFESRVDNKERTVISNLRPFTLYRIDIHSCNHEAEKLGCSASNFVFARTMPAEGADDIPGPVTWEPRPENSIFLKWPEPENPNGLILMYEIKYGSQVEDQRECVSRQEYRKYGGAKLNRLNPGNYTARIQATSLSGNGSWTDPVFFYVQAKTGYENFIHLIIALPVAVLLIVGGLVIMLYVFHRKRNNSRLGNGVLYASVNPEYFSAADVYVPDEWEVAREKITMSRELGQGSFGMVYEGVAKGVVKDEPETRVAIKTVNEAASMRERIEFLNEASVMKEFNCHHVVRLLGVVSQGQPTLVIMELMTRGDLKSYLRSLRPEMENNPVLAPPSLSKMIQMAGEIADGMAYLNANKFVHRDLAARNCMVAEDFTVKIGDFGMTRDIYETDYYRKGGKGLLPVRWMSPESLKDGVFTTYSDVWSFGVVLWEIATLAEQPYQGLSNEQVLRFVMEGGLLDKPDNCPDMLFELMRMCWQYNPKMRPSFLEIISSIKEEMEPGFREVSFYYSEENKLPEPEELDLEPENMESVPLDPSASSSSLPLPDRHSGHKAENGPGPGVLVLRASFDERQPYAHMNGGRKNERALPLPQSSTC
Experimental: (§2) The ADP-Glo kinase assay (Promega, Madison, WI, USA) was used to screen compounds 5, 8–10, 14, 17, 19 and 24 for the tyrosine kinase (Kinase Selectivity Profiling System TK-1, Promega, Madison, WI, USA) and serine/threonine kinase (Kinase Selectivity Profiling System Other/CK-1, Promega, Madison, WI, USA) inhibition effects according to the manufacturer’s technical manual. The luminescence data were analyzed as described in our prior work.
(§3) The selectivity of the potential kinase inhibitor against a specific protein kinase or a specific family of kinases was investigated using the Kinase Selectivity Profiling System TK-1, Other/CK-1 and ADP-Glo™ Kinase assay kit (Promega, Madison, WI, USA).

[10] = target: T2, Aurora A (Homo sapiens, UniProt O14965); assay: ADP-Glo kinase assay, Aurora A; type: biochemical
T2 construct: purchased Promega
T2 sequence (O14965 1-403): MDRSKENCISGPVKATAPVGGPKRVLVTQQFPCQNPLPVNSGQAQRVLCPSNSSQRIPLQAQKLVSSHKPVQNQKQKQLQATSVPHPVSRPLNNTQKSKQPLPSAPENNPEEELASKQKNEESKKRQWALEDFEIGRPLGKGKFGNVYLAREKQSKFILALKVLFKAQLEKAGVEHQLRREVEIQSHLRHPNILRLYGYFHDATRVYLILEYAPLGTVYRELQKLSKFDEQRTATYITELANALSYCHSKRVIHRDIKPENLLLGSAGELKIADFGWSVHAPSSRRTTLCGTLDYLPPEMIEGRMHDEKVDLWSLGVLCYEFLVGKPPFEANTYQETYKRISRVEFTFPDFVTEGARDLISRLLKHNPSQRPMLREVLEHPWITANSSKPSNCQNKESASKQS
Experimental: as §2, §3

[11] = target: T3, InsR (insulin receptor) (Homo sapiens, UniProt P06213); assay: ADP-Glo kinase assay, InsR; type: biochemical
T3 construct: purchased Promega
T3 sequence (P06213 28-1382): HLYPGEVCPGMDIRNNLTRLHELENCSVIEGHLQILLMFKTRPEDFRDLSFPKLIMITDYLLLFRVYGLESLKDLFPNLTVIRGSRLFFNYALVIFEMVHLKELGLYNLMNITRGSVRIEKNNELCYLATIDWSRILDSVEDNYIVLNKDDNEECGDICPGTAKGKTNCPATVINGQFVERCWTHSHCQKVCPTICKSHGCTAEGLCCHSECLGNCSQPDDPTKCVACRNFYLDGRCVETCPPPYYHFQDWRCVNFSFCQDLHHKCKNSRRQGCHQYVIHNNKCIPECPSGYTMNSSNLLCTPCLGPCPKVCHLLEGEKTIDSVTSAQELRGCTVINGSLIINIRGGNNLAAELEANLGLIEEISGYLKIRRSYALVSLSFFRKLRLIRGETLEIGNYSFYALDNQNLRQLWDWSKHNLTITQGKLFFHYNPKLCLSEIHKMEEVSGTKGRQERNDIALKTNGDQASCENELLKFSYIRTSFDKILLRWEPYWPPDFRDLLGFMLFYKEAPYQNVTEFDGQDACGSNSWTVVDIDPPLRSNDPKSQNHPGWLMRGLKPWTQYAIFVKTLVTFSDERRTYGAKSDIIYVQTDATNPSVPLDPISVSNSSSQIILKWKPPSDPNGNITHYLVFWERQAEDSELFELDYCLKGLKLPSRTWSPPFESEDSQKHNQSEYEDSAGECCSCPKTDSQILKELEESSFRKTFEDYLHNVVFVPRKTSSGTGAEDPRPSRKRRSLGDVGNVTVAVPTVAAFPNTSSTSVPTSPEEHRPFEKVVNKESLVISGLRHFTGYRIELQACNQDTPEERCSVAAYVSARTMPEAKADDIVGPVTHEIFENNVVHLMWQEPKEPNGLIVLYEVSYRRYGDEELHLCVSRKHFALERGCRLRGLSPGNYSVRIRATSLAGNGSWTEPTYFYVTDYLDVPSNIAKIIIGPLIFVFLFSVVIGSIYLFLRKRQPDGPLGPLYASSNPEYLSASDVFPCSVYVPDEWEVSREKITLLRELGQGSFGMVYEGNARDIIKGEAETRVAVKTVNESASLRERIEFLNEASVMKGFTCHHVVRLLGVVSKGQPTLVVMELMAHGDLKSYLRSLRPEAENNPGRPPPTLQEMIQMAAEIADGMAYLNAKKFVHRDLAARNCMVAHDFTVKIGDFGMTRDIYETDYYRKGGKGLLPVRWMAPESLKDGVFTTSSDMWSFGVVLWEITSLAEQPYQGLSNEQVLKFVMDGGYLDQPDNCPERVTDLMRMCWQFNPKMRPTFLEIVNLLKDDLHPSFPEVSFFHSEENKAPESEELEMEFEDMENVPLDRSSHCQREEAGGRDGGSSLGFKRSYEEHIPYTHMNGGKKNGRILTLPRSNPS
Experimental: as §2, §3

[12] = target: T4, HER4 (Homo sapiens, UniProt Q15303); assay: ADP-Glo kinase assay, HER4; type: biochemical
T4 construct: purchased Promega
T4 sequence (Q15303 26-1308): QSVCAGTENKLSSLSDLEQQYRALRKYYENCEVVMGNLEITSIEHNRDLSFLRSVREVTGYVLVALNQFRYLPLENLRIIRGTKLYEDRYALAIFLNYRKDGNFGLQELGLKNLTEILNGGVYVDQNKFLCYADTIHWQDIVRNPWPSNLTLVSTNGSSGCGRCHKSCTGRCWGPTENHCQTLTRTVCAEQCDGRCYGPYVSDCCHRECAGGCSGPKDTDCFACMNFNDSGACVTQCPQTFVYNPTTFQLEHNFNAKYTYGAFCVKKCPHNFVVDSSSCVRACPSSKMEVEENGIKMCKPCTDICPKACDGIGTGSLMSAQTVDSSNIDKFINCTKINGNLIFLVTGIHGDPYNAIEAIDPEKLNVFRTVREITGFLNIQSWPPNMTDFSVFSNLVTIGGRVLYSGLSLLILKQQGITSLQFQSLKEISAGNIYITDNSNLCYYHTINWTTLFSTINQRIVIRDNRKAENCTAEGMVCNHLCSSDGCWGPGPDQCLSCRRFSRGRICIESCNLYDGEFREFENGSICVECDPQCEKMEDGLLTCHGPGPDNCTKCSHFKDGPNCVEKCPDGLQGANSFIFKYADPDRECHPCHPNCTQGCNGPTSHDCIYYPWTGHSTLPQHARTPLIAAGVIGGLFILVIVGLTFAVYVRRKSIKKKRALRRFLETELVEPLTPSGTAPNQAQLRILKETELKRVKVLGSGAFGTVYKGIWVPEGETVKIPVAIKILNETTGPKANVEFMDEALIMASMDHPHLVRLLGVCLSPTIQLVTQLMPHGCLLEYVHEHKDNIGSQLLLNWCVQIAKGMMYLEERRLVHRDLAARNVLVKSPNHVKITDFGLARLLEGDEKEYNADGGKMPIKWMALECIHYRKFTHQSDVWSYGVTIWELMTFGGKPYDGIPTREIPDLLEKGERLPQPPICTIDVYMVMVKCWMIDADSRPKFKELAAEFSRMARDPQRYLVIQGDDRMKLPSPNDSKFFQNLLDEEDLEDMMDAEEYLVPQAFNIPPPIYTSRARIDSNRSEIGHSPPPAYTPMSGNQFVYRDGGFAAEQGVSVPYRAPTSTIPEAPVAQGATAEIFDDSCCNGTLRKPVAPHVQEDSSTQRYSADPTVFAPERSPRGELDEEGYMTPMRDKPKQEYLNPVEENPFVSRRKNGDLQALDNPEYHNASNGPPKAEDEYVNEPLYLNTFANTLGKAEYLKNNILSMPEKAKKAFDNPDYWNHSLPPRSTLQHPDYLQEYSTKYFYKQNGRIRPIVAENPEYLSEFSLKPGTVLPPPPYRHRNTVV
Experimental: as §2, §3

[13] = target: T5, Aurora B (Homo sapiens, UniProt Q96GD4); assay: ADP-Glo kinase assay, Aurora B; type: biochemical
T5 construct: purchased Promega
Experimental: as §2, §3

[14] = target: T6, HER2 (Homo sapiens, UniProt P04626); assay: ADP-Glo kinase assay, HER2; type: biochemical
T6 construct: purchased Promega
Experimental: as §2, §3

[15] = target: T7, PDGFRβ (Homo sapiens, UniProt P09619); assay: ADP-Glo kinase assay, PDGFRβ; type: biochemical
T7 construct: purchased Promega
Procedure, shortened: (§4)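 Inhibition is reported from ADP-Glo luminescence, which quantifies ADP generated by the kinase reaction; the enzymes came from a tyrosine kinase selectivity profiling system used under standard kit conditions.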

[16] = target: T8, EGFR (Homo sapiens, UniProt P00533); assay: ADP-Glo kinase assay, EGFR; type: biochemical
T8 construct: purchased Promega

[17] = target: T9, KDR (VEGFR-2) (Homo sapiens, UniProt P35968); assay: ADP-Glo kinase assay, KDR; type: biochemical
T9 construct: purchased Promega

[18] = target: T10, PDGFRα (Homo sapiens, UniProt P16234); assay: ADP-Glo kinase assay, PDGFRα; type: biochemical
T10 construct: purchased Promega
T10 sequence (P16234 24-1089): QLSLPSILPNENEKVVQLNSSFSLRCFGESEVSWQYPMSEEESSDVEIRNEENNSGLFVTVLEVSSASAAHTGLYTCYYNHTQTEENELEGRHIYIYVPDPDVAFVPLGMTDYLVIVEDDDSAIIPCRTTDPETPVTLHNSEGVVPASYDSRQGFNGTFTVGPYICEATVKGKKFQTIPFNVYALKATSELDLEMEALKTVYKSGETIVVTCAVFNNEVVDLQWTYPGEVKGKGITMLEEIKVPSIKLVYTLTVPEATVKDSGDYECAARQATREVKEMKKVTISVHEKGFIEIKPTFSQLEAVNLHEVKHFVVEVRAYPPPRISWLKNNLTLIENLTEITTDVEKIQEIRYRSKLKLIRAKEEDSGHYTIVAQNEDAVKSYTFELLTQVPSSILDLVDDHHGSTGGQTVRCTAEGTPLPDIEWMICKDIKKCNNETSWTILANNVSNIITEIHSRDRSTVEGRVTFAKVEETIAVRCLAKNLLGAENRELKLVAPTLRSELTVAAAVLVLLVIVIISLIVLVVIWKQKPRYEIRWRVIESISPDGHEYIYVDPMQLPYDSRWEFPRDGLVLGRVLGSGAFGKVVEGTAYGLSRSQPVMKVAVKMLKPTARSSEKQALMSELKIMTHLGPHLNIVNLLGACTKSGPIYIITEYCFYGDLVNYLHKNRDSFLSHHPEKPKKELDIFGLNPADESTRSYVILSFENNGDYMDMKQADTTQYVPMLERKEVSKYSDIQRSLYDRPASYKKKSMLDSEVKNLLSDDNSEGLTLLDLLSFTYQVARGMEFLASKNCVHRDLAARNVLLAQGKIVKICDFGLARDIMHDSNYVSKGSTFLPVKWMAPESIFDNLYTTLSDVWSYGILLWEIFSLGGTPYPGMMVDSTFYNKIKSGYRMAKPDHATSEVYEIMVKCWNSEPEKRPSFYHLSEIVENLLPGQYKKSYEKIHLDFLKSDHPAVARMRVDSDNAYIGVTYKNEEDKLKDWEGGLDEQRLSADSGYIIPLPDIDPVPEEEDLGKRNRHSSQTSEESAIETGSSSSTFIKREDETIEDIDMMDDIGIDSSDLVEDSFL
Procedure, shortened: as §4

[19] = test system: K562 cell line; assay: ROS determination (DCFH-DA, flow cytometry); type: cell-based; settings: 48 h
Experimental: The redox status was assessed using the K562 cell line. […] Then, the cells were washed to remove the 2′,7′-dichlorodihydrofluorescein diacetate by centrifugation at 1000 rpm for 5 min. The measurements were conducted using a Cytomics FC500 Beckman Coulter flow cytometer (FL1 channel for DCF).

[20] = test system: K562 cells; assay: Cell cycle analysis (propidium iodide, flow cytometry); type: cell-based; settings: 48 h
Experimental: Tumor cells were seeded on a 6-well plate at a density of 400,000 per well for K562. Test compounds 5, 14 and 15 were added at concentrations of 1, 5 and 10 μM in duplicate for 48 h. The methodology and analysis of the obtained data were performed as described in our prior work.
As shown above, compounds 5, 14 and 15 had significant antiproliferative activities, which is why their influences on the cell cycle and apoptosis level were determined, with the aim of understanding whether these effects are cytostatic or cytotoxic. In the cell cycle experiments, K562 cells were used. […] For the determination of changes in the distribution of cells in the phases of the cell cycle, the widely employed method of staining the cells with propidium iodide was used.

Row | IC50 [1] [µM] | IC50 [2] [µM] | IC50 [4] [µM] | IC50 [6] [µM] | IC50 [7] [µM] | melting point [°C] | IC50 [8] [µM] | inhibition at 10 µM [9] [%] | inhibition at 10 µM [11] [%] | inhibition at 10 µM [12] [%] | inhibition at 10 µM [14] [%] | inhibition at 10 µM [15] [%] | inhibition at 10 µM [18] [%] | Structure (SMILES) | Antiproliferative activity (IC50) over the studied cell cultures [3] | IC50 [5] [µM] | further results
1 | > 50 | 27.5 ± 2.58 | > 50 | > 50 | > 50 | 290 to 292 | > 50 | – | – | – | – | – | – | Cc1cn(-c2cc(NC(=O)c3cccc(C(=O)Nc4cc([N+](=O)[O-])ccc4C)c3)cc(C(F)(F)F)c2)cn1 [Compound 12, N1-(3-(4-methyl-1H-imidazol-1-yl)-5-(trifluoromethyl)phenyl)-N3-(2-methyl-5-nitrophenyl)isophthalamide] | lack of sensitivity of the cancer cells in the studied concentration range | 2.36 ± 1.13 | –
2 | > 50 | > 50 | > 50 | > 50 | > 50 | 208 to 210 | 15.6 | 0 | 0 | 0 | 13 | 15 | ≤ 20 | Cc1cn(-c2cc(NC(=O)c3ccc(C(=O)Nc4cccc(C(F)(F)F)c4)cc3)cc(C(F)(F)F)c2)cn1 [Compound 17, N1-(3-(4-methyl-1H-imidazol-1-yl)-5-(trifluoromethyl)phenyl)-N4-(3-(trifluoromethyl)phenyl)-terephthalamide] | practically did not affect the cell lines’ viability; also recorded: almost no effect on the cell lines’ viability | > 50 | inhibition at 10 µM [10]: 0%; inhibition at 10 µM [13]: 0%; inhibition at 10 µM [16]: 0%; inhibition at 10 µM [17]: 0%
3 | 18.6 ± 2.65 | 7.32 ± 2.15 | 10.9 ± 0.34 | 10.6 ± 1.02 | 27.1 ± 0.08 | – | 9.62 ± 1.56 | 0 | 0 | 100 | 76 | 10 | 2 | CS(=O)(=O)CCNCc1ccc(-c2ccc3ncnc(Nc4ccc(OCc5cccc(F)c5)c(Cl)c4)c3c2)o1 [Lapatinib, reference compound] | – | 9.31 ± 0.9 | ROS Level, % of Control ([19]; K562, 5 µM): 64.12 % of Control; ROS Level, % of Control ([19]; K562, 10 µM): 72.23 % of Control; ROS Level, % of Control ([19]; K562, 20 µM): 89.07 % of Control; IC50 ([3]; read-out: Antiproliferative activity (IC50) over the studied cell cultures): 2 to 27 µM; Apoptosis, % (cell cycle analysis) ([20]; K562, 1 µM): 14.74%; G1, % ([20]; K562, 1 µM): 34.47%; G2/M, % ([20]; K562, 1 µM): 52.23%; S, % ([20]; K562, 1 µM): 13.31%; Apoptosis, % (cell cycle analysis) ([20]; K562, 5 µM): 28.92%; G1, % ([20]; K562, 5 µM): 31.31%; G2/M, % ([20]; K562, 5 µM): 55.68%; S, % ([20]; K562, 5 µM): 13.02%
